Patent publication US11472808B2, “Substituted pyrrolo[1,2-c]pyrimidines as hepatitis B antiviral agents” (Enanta Pharmaceuticals, Inc., priority 2019, dated 2022)
pEC50: −log10 of the molar value.

The molecules below were run on HBV (assay: HepAD38 anti-HBV assay: reduction of viral product accumulation (virion DNA qPCR, HBsAg/HBeAg ELISA)). Conditions: Hepatitis B virus, 120 h; HepAD38 cells; concentration reducing viral product accumulation by 50% relative to no drug controls; harvest five days after compound addition; read-out: HepAD38 EC50.
Assay type: cell-based
Description: Methods: HepAD38 cells are maintained as previously reported (Ladner et al, Antimicrob. Agents Chemother. 1997, […], 1715). Briefly, cells are passaged upon attaining confluency in DMEM/F12 media in the presence of 10% FBS, Penn/Strep, 250 μg/mL G418, and 1 μg/ml tetracycline. Novel compounds are screened by first washing cells three times with PBS to remove tetracycline, and plating in 96 well plates at 35,000 cells/well. Compounds dissolved in DMSO are then diluted 1:200 into wells containing cells. Five days after compound addition, material is harvested for analysis. For an extended 8 day analysis, cells are plated and treated as described above, but media and compound are refreshed on d2 and d5 post initial treatment.
On harvest day, virion DNA is obtained by lysing with Sidestep Lysis and Stabilization Buffer and then quantified via quantitative real time PCR. Commercially available ELISA kits are used to quantitate the viral proteins HBsAg (Alpco) or HbeAg (US Biological) by following the manufacturer's recommended protocol after diluting samples to match the linear range of their respective assays. Irrespective of readout, compound concentrations that reduce viral product accumulation in the cell lysates or supernatants by 50% relative to no drug controls (EC50) are reported; EC50 ranges are as follows: A<0.1 μM; B 0.1-0.4 μM; C>0.4 μM.
With `Cc1ccc(S(=O)(=O)N2CCN([C@H]3CC4=C(c5ccn(C(F)F)n5)[C@H](c5ccc(F)cc5Cl)N=C(c5nccs5)N4C3)CC2)cc1` [Example 44] the pEC50 was < 6.40.
In the case of `COC(=O)CCS(=O)(=O)N[C@H]1CC2=C(c3ccn(C(F)F)n3)[C@H](c3ccc(F)cc3Cl)N=C(c3nccs3)N2C1` [Example 8], the pEC50 was 6.40 to 7.00.
For `COC(=O)OC[C@@]1(F)CC2=C(c3ccn(C(F)F)n3)[C@H](c3ccc(F)cc3Cl)N=C(c3nccs3)N2C1` [Example 183], the pEC50 was 6.40 to 7.00.
In the case of `O=S(=O)(N[C@H]1CC2=C(c3ccn(C(F)F)n3)[C@H](c3ccc(F)cc3Cl)N=C(c3nccs3)N2C1)c1cccc(-c2ccccc2)n1` [Example 409], the pEC50 was > 7.00.
`CCOC(=O)Cc1ccccc1S(=O)(=O)N[C@H]1CC2=C(c3ccn(C(F)F)n3)[C@H](c3ccc(F)cc3Cl)N=C(c3nccs3)N2C1` [Example 30] gave a pEC50 of 6.40 to 7.00.
With `O=S(=O)(CCCc1nnn[nH]1)N[C@H]1CC2=C(c3ccn(C(F)F)n3)[C@H](c3ccc(F)cc3Cl)N=C(c3nccs3)N2C1` [Example 137] the pEC50 was < 6.40.
For `CCOC(=O)/C=C/[C@@]1(F)CC2=C(c3ccn(C(F)F)n3)[C@H](c3ccc(F)cc3Cl)N=C(c3nccs3)N2C1` [Example 173], the pEC50 was > 7.00.
In the case of `CCOC(=O)C1CCN(S(=O)(=O)N[C@H]2CC3=C(c4ccn(C(F)F)n4)[C@H](c4ccc(F)cc4Cl)N=C(c4nccs4)N3C2)CC1` [Example 87], the pEC50 was > 7.00.
`O=S(=O)(N[C@H]1CC2=C(c3ccn(C(F)F)n3)[C@H](c3ccc(F)cc3Cl)N=C(c3nccs3)N2C1)NC1(c2ccccn2)CC1` [Example 321] was tested, and the pEC50 was > 7.00.
For `O=C(N[C@H]1CC2=C(c3ccn(C(F)F)n3)[C@H](c3ccc(F)cc3Cl)N=C(c3nccs3)N2C1)C1CCC1` [Example 237], the pEC50 was 6.40 to 7.00.
In the case of `O=C1NC2(CCN(S(=O)(=O)N[C@H]3CC4=C(c5ccn(C(F)F)n5)[C@H](c5ccc(F)cc5Cl)N=C(c5nccs5)N4C3)CC2)CO1` [Example 162], the pEC50 was > 7.00.
For `O=C(N[C@H]1CC2=C(c3ccn(C(F)F)n3)[C@H](c3ccc(F)cc3Cl)N=C(c3nccs3)N2C1)N1CCC(O)(c2ncco2)CC1` [Example 245], the pEC50 was 6.40 to 7.00.
With `O=C(N[C@H]1CC2=C(c3ccn(C(F)F)n3)[C@H](c3ccc(F)cc3Cl)N=C(c3nccs3)N2C1)c1ncccn1` [Example 232] the pEC50 was > 7.00.
For `O[C@@]1(Cn2cccn2)CC2=C(c3ccn(C(F)F)n3)[C@H](c3ccc(F)cc3Cl)N=C(c3nccs3)N2C1` [Example 121], the pEC50 was < 6.40.
`CC(C)[C@@H](NS(=O)(=O)N[C@H]1CC2=C(c3ccn(C(F)F)n3)[C@H](c3ccc(F)cc3Cl)N=C(c3nccs3)N2C1)c1ccccn1` [Example 341] was tested, and the pEC50 was 6.40 to 7.00.
`C=CC(O)C1(F)CC2=C(c3ccn(C(F)F)n3)[C@H](c3ccc(F)cc3Cl)N=C(c3nccs3)N2C1` (stereo partly shown) [Example 181] was tested, and the pEC50 was 6.40 to 7.00.
`O=C(N[C@H]1CC2=C(c3ccn(C(F)F)n3)[C@H](c3ccc(F)cc3Cl)N=C(c3nccs3)N2C1)N1CCC(O)CC1` [Example 208] was tested, and the pEC50 was > 7.00.
In the case of `CCOC(=O)C1CCN(CCS(=O)(=O)N[C@H]2CC3=C(c4ccn(C(F)F)n4)[C@H](c4ccc(F)cc4Cl)N=C(c4nccs4)N3C2)CC1` [Example 58], the pEC50 was 6.40 to 7.00.
`ONC[C@]1(O)CC2=C(c3ccn(C(F)F)n3)[C@H](c3ccc(F)cc3Cl)N=C(c3nccs3)N2C1` [Example 123] was tested, and the pEC50 was < 6.40.
`CNC(=O)OCC1(F)CC2=C(c3ccn(C(F)F)n3)[C@H](c3ccc(F)cc3Cl)N=C(c3nccs3)N2C1` (stereo partly shown) [Example 178] was tested, and the pEC50 was > 7.00.
For `CC(C)NC(=O)N[C@H]1CC2=C(c3ccn(C(F)F)n3)[C@H](c3ccc(F)cc3Cl)N=C(c3nccs3)N2C1` [Example 204], the pEC50 was > 7.00.
Molecule `O=C(N[C@H]1CC2=C(c3ccn(C(F)F)n3)[C@H](c3ccc(F)cc3Cl)N=C(c3nccs3)N2C1)N1C[C@@H](O)[C@@H](O)C1` [Example 226] has a pEC50 of 6.40 to 7.00.
In the case of `CS(=O)(=O)C[C@]1(O)CC2=C(c3ccn(C(F)F)n3)[C@H](c3ccc(F)cc3Cl)N=C(c3nccs3)N2C1` [Example 145], the pEC50 was < 6.40.
Molecule `CS(=O)(=O)c1ccc(NS(=O)(=O)N[C@H]2CC3=C(c4ccn(C(F)F)n4)[C@H](c4ccc(F)cc4Cl)N=C(c4nccs4)N3C2)cc1` [Example 347] has a pEC50 of 6.40 to 7.00.
`CC(C)[C@]1(O)CC[C@@H](c2ccc(S(=O)(=O)N[C@H]3CC4=C(c5ccn(C(F)F)n5)[C@H](c5ccc(F)cc5Cl)N=C(c5nccs5)N4C3)cc2)CC1` [Example 413] was tested, and the pEC50 was > 7.00.
With `O=S(=O)(N[C@H]1CC2=C(c3ccn(C(F)F)n3)[C@H](c3ccc(F)cc3Cl)N=C(c3nccs3)N2C1)N1C[C@H](O)[C@@H](O)C1` [Example 101] the pEC50 was > 7.00.
With `O=S(=O)(N[C@H]1CC2=C(c3ccn(C(F)F)n3)[C@H](c3ccc(F)cc3Cl)N=C(c3nccs3)N2C1)N1CCC(F)(F)CC1` [Example 277] the pEC50 was > 7.00.
`COC(=O)c1cccc(S(=O)(=O)NC[C@@]2(O)CC3=C(c4ccn(C(F)F)n4)[C@H](c4ccc(F)cc4Cl)N=C(c4nccs4)N3C2)c1` [Example 131] was tested, and the pEC50 was 6.40 to 7.00.
`C=CCOC[C@]1(O)CC2=C(c3ccn(C(F)F)n3)[C@H](c3ccc(F)cc3Cl)N=C(c3nccs3)N2C1` [Example 108] was tested, and the pEC50 was 6.40 to 7.00.
For `O=S(=O)(N[C@H]1CC2=C(c3ccn(C(F)F)n3)[C@H](c3ccc(F)cc3Cl)N=C(c3nccs3)N2C1)c1cccc(C2CC2)n1` [Example 408], the pEC50 was > 7.00.
`O=S(=O)(NCC1(O)CC1)N[C@H]1CC2=C(c3ccn(C(F)F)n3)[C@H](c3ccc(F)cc3Cl)N=C(c3nccs3)N2C1` [Example 158] was tested, and the pEC50 was 6.40 to 7.00.
`O=C(N[C@H]1CC2=C(c3ccn(C(F)F)n3)[C@H](c3ccc(F)cc3Cl)N=C(c3nccs3)N2C1)N1CC[C@@H](O)C1` [Example 225] was tested, and the pEC50 was > 7.00.
With `O=C(O)CCCS(=O)(=O)N[C@H]1CC2=C(c3ccn(C(F)F)n3)[C@H](c3ccc(F)cc3Cl)N=C(c3nccs3)N2C1` [Example 11] the pEC50 was > 7.00.
`O=S(=O)(N[C@H]1CC2=C(c3ccn(C(F)F)n3)[C@H](c3ccc(F)cc3Cl)N=C(c3nccs3)N2C1)C1(C[C@H](O)CO)CC1` [Example 425] was tested, and the pEC50 was > 7.00.
`CC(=O)OCCCS(=O)(=O)N[C@H]1CC2=C(c3ccn(C(F)F)n3)[C@H](c3ccc(F)cc3Cl)N=C(c3nccs3)N2C1` [Example 310] was tested, and the pEC50 was > 7.00.
In the case of `O=S(=O)(N[C@H]1CC2=C(c3ccn(C(F)F)n3)[C@H](c3ccc(F)cc3Cl)N=C(c3nccs3)N2C1)c1cc(F)c(F)c(F)c1` [Example 412], the pEC50 was > 7.00.
For `O=S(=O)(CCc1ccccn1)N[C@H]1CC2=C(c3ccn(C(F)F)n3)[C@H](c3ccc(F)cc3Cl)N=C(c3nccs3)N2C1` [Example 380], the pEC50 was 6.40 to 7.00.
For `O=C(CC1(S(=O)(=O)N[C@H]2CC3=C(c4ccn(C(F)F)n4)[C@H](c4ccc(F)cc4Cl)N=C(c4nccs4)N3C2)CC1)NCc1ccccn1` [Example 372], the pEC50 was > 7.00.
`COC(=O)NC[C@@]1(F)CC2=C(c3ccn(C(F)F)n3)[C@H](c3ccc(F)cc3Cl)N=C(c3nccs3)N2C1` [Example 186] showed a pEC50 of 6.40 to 7.00.
`O=C1NCCN1[C@H]1CC2=C(c3ccn(C(F)F)n3)[C@H](c3ccc(F)cc3Cl)N=C(c3nccs3)N2C1` [Example 40] showed a pEC50 of 6.40 to 7.00.
For `COC(=O)c1ccc(C#CCN2CCN([C@H]3CC4=C(c5ccn(C(F)F)n5)[C@H](c5ccc(F)cc5Cl)N=C(c5nccs5)N4C3)C2=O)cc1` [Example 42], the pEC50 was < 6.40.
With `O=C(N[C@H]1CC2=C(c3ccn(C(F)F)n3)[C@H](c3ccc(F)cc3Cl)N=C(c3nccs3)N2C1)N1CCC1` [Example 210] the pEC50 was > 7.00.
With `O=S(=O)(N[C@H]1CC2=C(c3ccn(C(F)F)n3)[C@H](c3ccc(F)cc3Cl)N=C(c3nccs3)N2C1)N1C[C@@H](O)[C@H](O)C1` [Example 102] the pEC50 was > 7.00.
